Several values for one entry are separate records, joined by “and”; a condition that tells them apart may be missing. Equal values may be shown once. Toxic doses and inconclusive results are not listed. The calls were made as follows: active = survival T/C of 150% or more; inactive = T/C below 125% in these data.
Test system: P388 leukemia ip, CD2F1 mice, survival T/C
Assay: NCI In Vivo Anticancer Drug Screen. Data for tumor model P388 Leukemia (intraperitoneal) in CD2F1 (CDF1) mice
Settings: endpoint: median survival time, higher = longer survival
Method in brief: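 Mice carrying the transplanted tumor received test compound or vehicle. Survival was recorded in each group, and the value is the treated-group measurement divided by that of the vehicle-treated control group.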

[1] = dose: 50.0 mg/kg/injection, schedule: Q01DX005 (ip), vehicle: saline
[2] = dose: 100.0 mg/kg/injection, schedule: Q01DX005 (ip), vehicle: saline
[3] = dose: 200.0 mg/kg/injection, schedule: Q01DX005 (ip), vehicle: saline
[4] = dose: 30.0 mg/kg/injection, schedule: Q01DX005 (ip), vehicle: saline with Tween-80
[5] = dose: 60.0 mg/kg/injection, schedule: Q01DX005 (ip), vehicle: saline with Tween-80
[6] = dose: 100.0 mg/kg/injection, schedule: Q04DX002 (ip), vehicle: saline with Tween-80
[7] = dose: 200.0 mg/kg/injection, schedule: Q04DX002 (ip), vehicle: saline with Tween-80
[8] = dose: 400.0 mg/kg/injection, schedule: Q04DX002 (ip), vehicle: saline with Tween-80
[9] = dose: 50.0 mg/kg/injection, schedule: Q01DX009 (ip), vehicle: saline with Tween-80
[10] = dose: 100.0 mg/kg/injection, schedule: Q01DX009 (ip), vehicle: saline with Tween-80
[11] = dose: 200.0 mg/kg/injection, schedule: Q01DX009 (ip), vehicle: saline with Tween-80
[12] = dose: 50.0 mg/kg/injection, schedule: Q01DX005 (ip), vehicle: saline with Tween-80
[13] = dose: 120.0 mg/kg/injection, schedule: Q01DX005 (ip), vehicle: saline with Tween-80
[14] = dose: 240.0 mg/kg/injection, schedule: Q01DX005 (ip), vehicle: saline with Tween-80
[15] = dose: 12.5 mg/kg/injection, schedule: Q01DX005 (ip), vehicle: saline with Tween-80
[16] = dose: 25.0 mg/kg/injection, schedule: Q01DX005 (ip), vehicle: saline with Tween-80
[17] = dose: 50.0 mg/kg/injection, schedule: Q01DX009 (ip), vehicle: Klucel (hydroxypropylcellulose) (HPC)
[18] = dose: 100.0 mg/kg/injection, schedule: Q01DX009 (ip), vehicle: Klucel (hydroxypropylcellulose) (HPC)
[19] = dose: 200.0 mg/kg/injection, schedule: Q01DX009 (ip), vehicle: Klucel (hydroxypropylcellulose) (HPC)

Measured: T/C

CC(C)C(=O)CCC(=O)O
inactive: [1] 106 % of control | [2] 97 % of control | [3] 98 % of control

CCCC(C(=O)OC)C(=O)C(C)c1nc2n(c1O)C(=N)N=N2 (centres undefined)
inactive: [1] 97 % of control | [2] 97 % of control | [3] 98 % of control

COc1ccc(C(c2c(O)c3ccccc3oc2=O)c2c(O)c3ccccc3oc2=O)cc1
inactive: dose: 15.0 mg/kg/injection, schedule: Q01DX005 (ip), vehicle: saline with Tween-80 98 % of control | [4] 98 % of control | [5] 100 % of control and 98 % of control

CCOC(=O)CC12C=CC(CC(=O)OCC)(CC1)n1c(=O)n(C)c(=O)n12
inactive: [6] 100 % of control | [7] 100 % of control | [8] 101 % of control

Cc1cc2nc3[nH]c(=O)c4ccccc4c(=O)n3c2cc1C
inactive: dose: 100.0 mg/kg/injection, schedule: Q01DX001 (ip), vehicle: Klucel (hydroxypropylcellulose) (HPC) 98 % of control | dose: 200.0 mg/kg/injection, schedule: Q01DX001 (ip), vehicle: Klucel (hydroxypropylcellulose) (HPC) 92 % of control

O=c1nc(-c2ccc3c(c2)OCO3)sc(=O)[nH]1
inactive: [9] 111 % of control | [10] 107 % of control | [11] 112 % of control

Clc1ccc(-c2csc3sc4ccccc4[n+]23)cc1
inactive: [12] 111 % of control | dose: 100.0 mg/kg/injection, schedule: Q01DX005 (ip), vehicle: saline with Tween-80 118 % of control | dose: 200.0 mg/kg/injection, schedule: Q01DX005 (ip), vehicle: saline with Tween-80 113 % of control

CC1(C)C=C(C(Br)c2ccccc2)C(=O)c2ccccc21 (centres undefined)
inactive: dose: 25.0 mg/kg/injection, schedule: Q01DX009 (ip), vehicle: other 100 % of control | dose: 44.0 mg/kg/injection, schedule: Q01DX009 (ip), vehicle: other 112 % of control | dose: 50.0 mg/kg/injection, schedule: Q01DX009 (ip), vehicle: other 118 % of control | dose: 150.0 mg/kg/injection, schedule: Q01DX009 (ip), vehicle: other 121 % of control | dose: 200.0 mg/kg/injection, schedule: Q01DX009 (ip), vehicle: other 116 % of control

CCCc1cc(=O)[nH]c(Sc2c([N+](=O)[O-])ncn2C)n1
inactive: [9] 103 % of control | [10] 95 % of control | [11] 91 % of control

COc1ccc(Br)cc1C(Nc1nncs1)Nc1nncs1
inactive: [4] 93 % of control | [5] 87 % of control and 89 % of control | [13] 92 % of control | [14] 90 % of control

COc1ccc(N(C)C(=O)/C=C/N2CCCCC2)cc1
inactive: dose: 12.5 mg/kg/injection, schedule: Q01DX005 (ip), vehicle: Klucel (hydroxypropylcellulose) (HPC) 107 % of control | dose: 25.0 mg/kg/injection, schedule: Q01DX005 (ip), vehicle: Klucel (hydroxypropylcellulose) (HPC) 98 % of control | dose: 50.0 mg/kg/injection, schedule: Q01DX005 (ip), vehicle: Klucel (hydroxypropylcellulose) (HPC) 114 % of control and 98 % of control | dose: 100.0 mg/kg/injection, schedule: Q01DX005 (ip), vehicle: Klucel (hydroxypropylcellulose) (HPC) 124 % of control and 96 % of control | dose: 200.0 mg/kg/injection, schedule: Q01DX005 (ip), vehicle: Klucel (hydroxypropylcellulose) (HPC) 109 % of control

COC(=O)c1c2c(cc3nc4ccccc4nc13)OCO2
inactive: [5] 96 % of control | [13] 97 % of control | [14] 90 % of control

Cc1cc(N(C)C)c2ccc(N(C)C)cc2n1
inactive: [15] 97 % of control | [16] 98 % of control | [12] 99 % of control and 104 % of control

CCOC(=O)c1ccc(N2N=C3C(=CC(=O)c4ccccc43)SCC2=O)cc1
inactive: [15] 112 % of control | [16] 117 % of control | [12] 116 % of control

COc1cc(OC)cc(C2OC(=O)c3c(OC)cc(C)cc32)c1 (centres undefined)
inactive: [6] 93 % of control | [7] 88 % of control | [8] 90 % of control

O=C(NC(=O)C(F)(F)C(F)(F)C(F)(F)F)Nc1ccc(F)c(Cl)c1
inactive: [9] 107 % of control | [10] 99 % of control | [11] 105 % of control

O=C(Nc1c(Cl)cccc1Cl)OC1CCCCCCCCCCC1
inactive: [17] 100 % of control | [18] 92 % of control | [19] 86 % of control

O=C1CC(c2ccccc2)C(c2ccccc2)CO1 (centres undefined)
inactive: dose: 25.0 mg/kg/injection, schedule: Q04DX003 (ip), vehicle: Klucel (hydroxypropylcellulose) (HPC) 91 % of control | dose: 50.0 mg/kg/injection, schedule: Q04DX003 (ip), vehicle: Klucel (hydroxypropylcellulose) (HPC) 92 % of control | dose: 100.0 mg/kg/injection, schedule: Q04DX003 (ip), vehicle: Klucel (hydroxypropylcellulose) (HPC) 88 % of control and 92 % of control | dose: 400.0 mg/kg/injection, schedule: Q04DX003 (ip), vehicle: Klucel (hydroxypropylcellulose) (HPC) 87 % of control

CCOC(=O)c1ccc(NC(c2ccc(N(CCCl)CCCl)cc2)P(=O)(Oc2ccccc2)Oc2ccccc2)cc1 (centres undefined)
inactive: [17] 93 % of control | [18] 96 % of control | [19] 95 % of control

Cc1cccnc1NS(=O)(=O)c1ccccc1
inactive: [10] 100 % of control | [11] 100 % of control | dose: 400.0 mg/kg/injection, schedule: Q01DX009 (ip), vehicle: saline with Tween-80 100 % of control

C=Cc1c2[n-]c(c1C)/C=C1\[N-]/C(=C3\c4[n-]c(c(C)c4C(=O)C3C(=O)O)/C=c3\[n-]/c(c(C)c3CC)=C\2)C(CCC(=O)O)C1C.[Pt+4] (centres undefined)
inactive: dose: 50.0 mg/kg/injection, schedule: Q04DX002 (ip), vehicle: saline 100 % of control | dose: 100.0 mg/kg/injection, schedule: Q04DX002 (ip), vehicle: saline 90 % of control | dose: 200.0 mg/kg/injection, schedule: Q04DX002 (ip), vehicle: saline 88 % of control

C(=N/c1ccccn1)/c1ccc2c(c1)OCO2
inactive: [17] 100 % of control | [18] 105 % of control | [19] 101 % of control

COc1ccc(/C(Cc2ccccc2)=N/NS(=O)(=O)c2ccc(C)cc2)cc1
inactive: dose: 50.0 mg/kg/injection, schedule: Q01DX009 (ip), vehicle: saline 89 % of control | dose: 100.0 mg/kg/injection, schedule: Q01DX009 (ip), vehicle: saline 101 % of control | dose: 200.0 mg/kg/injection, schedule: Q01DX009 (ip), vehicle: saline 98 % of control

CC(O)C(NCNC(=O)C1=C(O)C2(O)C(=O)C3=C(O)c4c(O)cccc4C(C)(O)C3CC2C(N(C)C)C1=O)C(=O)O (centres undefined)
inactive: dose: 25.0 mg/kg/injection, schedule: Q01DX005 (ip), vehicle: saline 107 % of control | [1] 108 % of control | [2] 111 % of control | dose: 100.0 mg/kg/injection, schedule: Q04DX003 (ip), vehicle: saline with Tween-80 104 % of control | [3] 100 % of control | dose: 200.0 mg/kg/injection, schedule: Q04DX003 (ip), vehicle: saline with Tween-80 104 % of control | dose: 400.0 mg/kg/injection, schedule: Q04DX003 (ip), vehicle: saline with Tween-80 104 % of control

COc1cc(/C=C2/CCC/C(=C\c3ccc(OCC(O)COc4ccc(C(C)(C)c5ccc(OCC6CO6)cc5)cc4)c(OC)c3)C2=O)ccc1OCC(O)COc1ccc(C(C)(C)c2ccc(OCC3CO3)cc2)cc1 (centres undefined)
inactive: [17] 96 % of control | [18] 97 % of control | [19] 95 % of control

— PubChem BioAssay AID330 (DTP/NCI, 2004)
